Literature values in PMC3949622, “Macrocyclic Pyridyl Polyoxazoles: Structure-Activity Studies of the Aminoalkyl Side-Chain on G-Quadruplex Stabilization and Cytotoxic Activity” (Molecules, 2013).
Several values for one entry are separate records, joined by “and”; a condition that tells them apart may be missing. Equal entries are not always repeated. Where two headings read alike, the source gives them in different places. Marks after values point to notes of the source that are not given here.

Legend:
[1] = test system: human telomeric sequence d[T2G3(T2AG3)3A] (hTel) quadruplex DNA; details: change in transition temperature of hTel quadruplex DNA; ref [21]; cited from earlier work
Protocol: Table 1 Effect of various pyridyl polyoxazoles on the thermal stabilities of duplex and quadruplex DNA. | column: hTel -Quadruplex DNA / ΔTtran (°C)^a || The results observed with the hTel quadruplex DNA however, stand in stark contrast with the ST duplex DNA results. In the series of three 4-phenyl substituted analogs compound 8 and 11 strongly stabilize G-quadruplex DNA by 20.5 and 24.6 °C respectively. Compound 8 has the tertiary amine directly connected to the phenyl while in 11 the amine is separated from the phenyl ring by two methylene groups. In contrast, the 3-dimethylaminopropyl analog 12 stabilizes G-quadruplex DNA to a much lesser extent. When the side-chain is attached to the 5-position of the phenyl ring the results are quite dram ...

[2] = test system: Salmon testes (ST) duplex DNA; details: change in transition temperature of ST duplex DNA; ref [21]; cited from earlier work
Description: Table 1 Effect of various pyridyl polyoxazoles on the thermal stabilities of duplex and quadruplex DNA. | column: Salmon Testes Duplex DNA / ΔTtran (°C) ^a

RPMI 8402 cells = details: ref [21], cited from earlier work
Description: (§1) Table 2 Relative cytotoxic activities. IC50 values (μM) ^a. | column: RPMI 8402 || The development of G-quadruplex stabilizers as a potential new class of anticancer agents hinges on the ability to design compounds that stabilize only G-quadruplexes and not other nucleic acid structures such as duplex or triplex DNA [15]. While a diverse array of compounds have been reported to stabilize G-quadruplex DNA [1], most also have some ability to stabilize duplex DNA. The natural product telomestatin for example, is reported to stabilize G-quadruplex DNA with 70:1 selectivity over duplex DNA [16, 17]. In contrast, the synthetic macrocyclic hexaoxazole HXDV (Figure 1) demonst ...

KB3-1 cells = details: ref [21], cited from earlier work
Description: as §1, with “KB3-1 wt.” for “RPMI 8402”

[3] = test system: human breast cancer xenograft (MDA-MB-435); details: MDA-MB-435 xenograft in athymic nude mice; ref [21]; cited from earlier work
Description: as §1, with “The” for “Table 2 Relative cytotoxic activities. IC50 values (μM) ^a. | column: RPMI 8402 || The”

CN(C)CCc1cc2cc(c1)CNC(=O)c1coc(n1)-c1coc(n1)-c1cccc(n1)-c1nc(co1)-c1nc(co1)C(=O)NC2 [Compound 2]
ΔTtran, hTel quadruplex DNA [1]: 20.5 °C and 20.5 ^b °C
ΔTtran, salmon testes duplex DNA [2]: 0 ^b °C
IC50 (RPMI 8402 cells; range given for analogs 1 and 2 together, read-out: IC50 against RPMI 8402 cells): 90 to 180 nM
IC50 (RPMI 8402 cells; read-out: IC50, RPMI 8402): 180 nM
IC50 (KB3-1 cells; range given for analogs 1 and 2 together, read-out: IC50 against KB3-1 cells): 30 to 40 nM
IC50 (KB3-1 cells; read-out: IC50, KB3-1 wt.): 40 nM
%T/C (average tumor volumes of treated/control animals) [3]: 27.7%
